# Assay results published in PMC8129133, “Polymer-free corticosteroid dimer implants for controlled and sustained drug delivery” (Nature Communications, 2021).
# Where “and” joins values, the source holds several entries; their conditions need not be identical. Equal entries are not always repeated.
# Columns and labels:
# [1] = In vitro half-life / degradation of solubilized Dex-TEG-Dex in FBS; format: in vitro ADME
# Description: Dex-TEG-Dex was dissolved in acetone at 10 mg/ml and added to 100% FBS to obtain a final concentration of 10 µg/ml and incubated at 37 °C with constant agitation at 115 rpm (VWR). At experimental timepoints of t = 0, 0.5, 1, 2, 3, 4, 5, 6, and 24 h, sample was removed and protein was precipitated with acetonitrile. Samples were vortexed and centrifuged to separate extracted drug from the precipitated protein. The supernatant was then analyzed by HPLC as described above.
# [2] = 3-point bend test of extruded rods; format: physicochemical; details: Fig 2c
# Text: Extruded rods of ~300 µm diameter and 8 mm length (6 mm span on testing apparatus) were subjected to a 3-point bend test using an Instron uniaxial servo-hydraulic testing machine (Instron Model 8501) with a 2.5 N load cell and cross-head speed of 0.8 mm/min.
# [3] = system: lipopolysaccharide (LPS)-induced model of uveitis in a rat eye; experiment: Rat uveitis model; format: in vivo, Brown Norway rats; details: for Retinal Thickness (µm): single eyes, Fig 7e
# Description: Sample preparation. Dex-TEG-Dex was weighed on a stainless steel coupon and transferred to a heat press (Carver Laboratory Press). Once melted, a polytetrafluoroethylene (PTFE) template was placed on the melt and pressure was applied for 2 min. Samples were cooled to room temperature prior to removal from the PTFE mold, yielding implants with 23 G diameter × 1 mm length. Samples were loaded into appropriate-sized needles (23 G), packaged, and sterilized by ethylene oxide gas.
# LPS stimulation and implantation. […] Animals were first sedated in an isoflurane gas chamber before being anaesthetized through an intraperitoneal injection of ketamine (100 mg/kg) and xylazine (10 mg/kg) solution. One day prior to LPS stimulation, eyes were prepared with topical anesthetic eye drops (Alcaine, 0.5%, Alcon) and pupils were dilated with application of one drop of 1% tropicamide (Alcon) on each cornea prior to anesthesia. Implants were then injected with a 23 G needle into the vitreous humor of rat eyes. Negative control animals received a sham injection, while the positive control group received a sham injection as well as Dex eye drops 4× daily (Maxidex 0.1%, Alcon). One day after test article administration, each rat received an intravitreal injection of 100 ng of LPS (LPS Escherichia coli 0111:B4, Sigma Aldrich) to induce inflammation. The inflammatory state of the eyes was monitored by slit-lamp microscopy (Phoenix Anterior Segment Slit Lamp), fundus microscopy (Phoenix Micron IV), and optical coherence tomography (Phoenix image-guided OCT) for 72 h post-LPS injection. Slit-lamp was used to image the anterior structures of the rat eye and to assess changes in vasculature, aqueous humor haze, pupil responsiveness, and presence of cellular infiltrates. Anterior segment OCT (ASOCT) was used to assess signs of inflammation in the anterior chamber through anterior chamber flare, pupillary fibrin occlusions, and presence of inflammatory cells. The ASOCT was used only for qualitative evaluation of the inflammatory state. Posterior segment OCT (PSOCT) was used to capture six (6) images around the optic disc (OD) of each eye and the images were used for retinal thickness, inflammatory cell count, and vitreal haze evaluation. Retinal thickness was measured using ImageJ (v.1.8.0) from four (4) OCT images close to the optic disk. Inflammatory cells were manually quantified from the same OCT images used for retinal thickness measurements.
# [4] = system: vascular endothelial growth factor (VEGF) induced blood-retinal barrier breakdown; experiment: Rabbit pharmacodynamics, VEGF-induced vascular leakage; format: in vivo, Dutch Belted rabbits
# Description: Pharmacodynamics. Rabbit pharmacodynamics studies were performed at Absorption Systems California (San Diego, CA, USA). All studies were conducted in compliance with relevant ethical regulations, including the USDA Animal Welfare Act (i.e., relevant sections of Section 9, Part 1, 2, and 3 of the Code of Federal Regulations) and in compliance with Absorption Systems’ Animal Welfare Assurance filed with the National Institutes of Health. Protocols were reviewed and approved by Absorption Systems’ Institutional Animal Care and Use Committee (IACUC) prior to the initiation of procedures. Treatment of animals was in accordance with conditions specified in the Guide for Care and Use of Laboratory Animals (NRC, 2011, National Academy Press). Animals were anesthetized with intramuscular ketamine hydrochloride (15-20 mg/kg) and xylazine (5 mg/kg) prior to test article injection or vascular leakage induction. The eye area was surgically prepped with 5% betadine and rinsing with balanced salt solution, followed by administration of 1–2 drops of topical proparacaine hydrochloride (0.5%). […] Test articles (27 G × 6 mm, 30 G × 6 mm, and 32 G × 6 mm Dex-TEG-Dex extruded rods, or Ozurdex®) were injected intravitreally in Dutch Belted rabbits (male, 1.84–2.49 kg, 5–6 months) on Day 0 and vascular leakage was induced by an intravitreal injection of VEGF (500 ng/eye) at acute and chronic timepoints (1 week, 2.5, 4.5, 6, 9, 12, and/or 18 months) post-implantation. Post-injection analgesia was provided by 0.02-0.05 mg/kg IM/SC buprenorphine. Negative control rabbits received a sham injection while positive control rabbits received a 2 mg solution dose of triamcinolone acetonide (Kenalog-40). Ophthalmic exams, including fundus microscopy and slit lamp microscopy, were carried out over the 3 days post-VEGF induction and vascular leakage was measured by fluorescein angiography on the third day post-VEGF induction. Eyes were graded based on fundus and fluorescein angiography images using a scoring system as follows[76]: 0 – major vessels straight, some tortuosity of smaller vessels, no vessel dilation; 1 – increased tortuosity of major vessels and/or some vessel dilation; 2 – leakage between major vessels, significant vessel dilation; 3 – leakage between major and minor vessels, minor vessels still visible; and 4 – leakage between major and minor vessels, minor vessels poorly/not visible.
smiles,measurement,setting,value
C[C@@H]1C[C@H]2[C@@H]3CCC4=CC(=O)C=C[C@]4(C)[C@@]3(F)[C@@H](O)C[C@]2(C)[C@@]1(O)C(=O)COC(=O)OCCOCCOCCOC(=O)OCC(=O)[C@@]1(O)[C@H](C)C[C@H]2[C@@H]3CCC4=CC(=O)C=C[C@]4(C)[C@@]3(F)[C@@H](O)C[C@@]21C [Dex-TEG-Dex],t1/2 of solubilized dimer with protease inhibitor,[1]; FBS + Pefabloc 1 mg/ml,17.5 ± 4.0 h
same,t1/2 of solubilized dimer,"[1]; FBS, 37 °C",1.6 ± 0.3 h
same,Dex-TEG-Dex,"[1]; Fig 4f/4g, 100% FBS, 0 h",8904.60 ng/mL and 12808.33 ng/mL and 10692.90 ng/mL
same,Dex-TEG-Dex,"[1]; Fig 4f/4g, 100% FBS, 0.5 h",7215.95 ng/mL and 9829.58 ng/mL and 8828.65 ng/mL
same,Dex-TEG-Dex,"[1]; Fig 4f/4g, 100% FBS, 1 h",5359.02 ng/mL and 7447.63 ng/mL and 6811.81 ng/mL
same,Dex-TEG-Dex,"[1]; Fig 4f/4g, 100% FBS, 2 h",2692.08 ng/mL and 4406.52 ng/mL and 3872.43 ng/mL
same,Dex-TEG-Dex,"[1]; Fig 4f/4g, 100% FBS, 3 h",1327.43 ng/mL and 2230.11 ng/mL and 1843.05 ng/mL
same,Dex-TEG-Dex,"[1]; Fig 4f/4g, 100% FBS, 4 h",658.17 ng/mL and 1181.11 ng/mL and 1053.60 ng/mL
same,Dex-TEG-Dex,"[1]; Fig 4f, 100% FBS, 24 h",0.00 ng/mL
same,Dex-TEG-Dex,"[1]; Fig 4g, 100% FBS + Pefabloc, 0 h",9696.84 ng/mL and 12099.70 ng/mL and 11672.92 ng/mL
same,Dex-TEG-Dex,"[1]; Fig 4g, 100% FBS + Pefabloc, 0.5 h",9639.71 ng/mL and 11685.46 ng/mL and 12342.53 ng/mL
same,Dex-TEG-Dex,"[1]; Fig 4g, 100% FBS + Pefabloc, 1 h",9646.33 ng/mL and 10767.80 ng/mL and 11272.62 ng/mL
same,Dex-TEG-Dex,"[1]; Fig 4g, 100% FBS + Pefabloc, 2 h",9053.36 ng/mL and 10983.11 ng/mL and 10167.52 ng/mL
same,Dex-TEG-Dex,"[1]; Fig 4g, 100% FBS + Pefabloc, 3 h",9138.02 ng/mL and 9847.00 ng/mL and 8269.83 ng/mL
same,Dex-TEG-Dex,"[1]; Fig 4g, 100% FBS + Pefabloc, 4 h",8469.46 ng/mL and 9930.96 ng/mL and 8280.63 ng/mL
same,Dex-TEG-Dex,"[1]; Fig 4g, 100% FBS + Pefabloc, 5 h",8230.46 ng/mL and 9376.67 ng/mL and 8546.80 ng/mL
same,Dex-TEG-Dex,"[1]; Fig 4g, 100% FBS + Pefabloc, 6 h",7196.79 ng/mL and 9318.49 ng/mL and 8262.17 ng/mL
same,Flexural Modulus,[2],2.45 GPa and 2.68 GPa and 3.21 GPa and 3.29 GPa and 3.01 GPa
same,Retinal Thickness (µm),[3]; 0h,298 µm and 279 µm and 272 µm and 275 µm and 314 µm and 300 µm and 293 µm and 294 µm
same,Retinal Thickness (µm),[3]; 24h,300 µm and 269 µm and 279 µm and 286 µm and 296 µm and 289 µm and 292 µm
same,Retinal Thickness (µm),[3]; 48h,279 µm and 296 µm and 265 µm and 264 µm and 275 µm and 261 µm and 294 µm and 266 µm
same,Retinal Thickness (µm),[3]; 72h,245 µm and 261 µm and 250 µm and 249 µm and 236 µm and 241 µm and 247 µm and 259 µm
same,Retinal Thickness (µm),[3]; -24h,244 µm and 248 µm and 257 µm and 251 µm and 238 µm and 240 µm
same,effect on LPS-induced inflammatory response,"[3]; intravitreal 23 G implant, 24 h before LPS, cellular infiltrate and retinal thickness by OCT, 72 h",acutely suppress the LPS-induced inflammatory response
same,efficacy against VEGF-induced changes,"[4]; 1 week, Dex-TEG-Dex as 30 G × 6 mm implant",efficacious
same,duration of efficacy,"[4]; 27 G × 6 mm implant, all time points tested",≥ 18 months
same,duration of inhibition of VEGF-induced effects,[4]; 32 G × 6 mm implant,≥ 4.5 months
same,efficacy against VEGF-induced changes,"[4]; 32 G × 6 mm implant, 6 months",reduced efficacy
same,duration of efficacy,"[4]; Dex-TEG-Dex as 30 G × 6 mm implant, VEGF challenge",9–12 months
same,duration of efficacy,"[4]; Dex-TEG-Dex as 30 G × 6 mm implant, VEGF challenge, listed as dexamethasone dimer",> 6 months
